Measurements published in the supplement of paper PMC10307832.

Experiments:
Assay in all cases: relative viability (nuclei count vs DMSO), 5 days (fraction); higher = more cells survive
[1] = system: BEN
How it was run: (§1)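 Relative viability was taken as the ratio of nuclei in treated wells to nuclei in vehicle wells. Lung cancer cell lines in 1536-well plates received compounds by pin tool one day after seeding, either one drug alone or a fixed anchor-drug dose plus five library-drug doses (not always all listed) in √10 steps. Nuclei were counted on 4× images after 5 days of treatment, and values are medians of duplicate plates.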

[2] = system: EMC-BAC-2
How it was run: as §1

[3] = system: H3255
How it was run: as §1

[4] = system: HOP-62
How it was run: as §1

[5] = system: LCLC-97TM1
How it was run: as §1

[6] = system: LXF-289
How it was run: as §1

[7] = system: NCI-H1650
How it was run: as §1

[8] = system: NCI-H1915
How it was run: as §1

[9] = system: NCI-H1993
How it was run: as §1

[10] = system: NCI-H2009
How it was run: as §1

[11] = system: NCI-H2023
How it was run: as §1

[12] = system: NCI-H2085
How it was run: as §1

[13] = system: NCI-H2126
How it was run: as §1

[14] = system: NCI-H2342
How it was run: as §1

[15] = system: NCI-H2347
How it was run: as §1

[16] = system: NCI-H322M
How it was run: as §1

[17] = system: NCI-H358
How it was run: as §1

[18] = system: NCI-H647
How it was run: as §1

[19] = system: NCI-H661
How it was run: as §1

[20] = system: NCI-H727
How it was run: as §1

[21] = system: PC-14
How it was run: as §1

[22] = system: SK-LU-1
How it was run: as §1

[23] = system: SW 1573
How it was run: as §1

COc1cc(N2CCC(C(N)=O)CC2)ccc1Nc1nc(N)c(Cl)c(Nc2ccccc2S(=O)(=O)C(C)C)n1 [HG-5-88-01] + O=C(CCCCCCC(=O)Nc1ccccc1)NO [Vorinostat] (partner 1 µM)
relative viability ([1]; first compound 0.04 µM): 0.555 | relative viability ([1]; first compound 0.1265 µM): 0.624 | relative viability ([1]; first compound 0.4 µM): 0.591 | relative viability ([1]; first compound 1.265 µM): 0.552 | relative viability ([1]; first compound 4 µM): 0.532 | relative viability ([2]; first compound 0.04 µM): 0.503 | relative viability ([2]; first compound 0.1265 µM): 0.442 | relative viability ([2]; first compound 0.4 µM): 0.354 | relative viability ([2]; first compound 1.265 µM): 0.518 | relative viability ([2]; first compound 4 µM): 0.448 | relative viability ([3]; first compound 0.04 µM): 0.77 | relative viability ([3]; first compound 0.1265 µM): 0.907 | relative viability ([3]; first compound 0.4 µM): 0.729 | relative viability ([3]; first compound 4 µM): 0.741 | relative viability ([4]; first compound 0.04 µM): 0.579 | relative viability ([4]; first compound 0.1265 µM): 0.799 | relative viability ([4]; first compound 0.4 µM): 0.611 | relative viability ([4]; first compound 1.265 µM): 0.728 | relative viability ([4]; first compound 4 µM): 0.668 | relative viability ([5]; first compound 0.04 µM): 0.75 | relative viability ([5]; first compound 0.1265 µM): 0.757 | relative viability ([5]; first compound 0.4 µM): 0.62 | relative viability ([5]; first compound 1.265 µM): 0.645 | relative viability ([5]; first compound 4 µM): 0.126 | relative viability ([6]; first compound 0.04 µM): 0.93 | relative viability ([6]; first compound 0.1265 µM): 0.754 | relative viability ([6]; first compound 0.4 µM): 0.826 | relative viability ([6]; first compound 1.265 µM): 0.847 | relative viability ([6]; first compound 4 µM): 0.822 | relative viability ([7]; first compound 0.04 µM): 0.577 | relative viability ([7]; first compound 0.1265 µM): 0.654 | relative viability ([7]; first compound 0.4 µM): 0.541 | relative viability ([7]; first compound 1.265 µM): 0.526 | relative viability ([7]; first compound 4 µM): 0.46 | relative viability ([8]; first compound 0.04 µM): 0.476 | relative viability ([8]; first compound 0.1265 µM): 0.525 | relative viability ([8]; first compound 0.4 µM): 0.525 | relative viability ([8]; first compound 1.265 µM): 0.57 | relative viability ([8]; first compound 4 µM): 0.386 | relative viability ([9]; first compound 0.04 µM): 0.669 | relative viability ([9]; first compound 0.1265 µM): 0.976 | relative viability ([9]; first compound 0.4 µM): 0.721 | relative viability ([9]; first compound 4 µM): 0.644 | relative viability ([10]; first compound 0.04 µM): 0.704 | relative viability ([10]; first compound 0.1265 µM): 0.796 | relative viability ([10]; first compound 0.4 µM): 0.694 | relative viability ([10]; first compound 1.265 µM): 0.616 | relative viability ([10]; first compound 4 µM): 0.647 | relative viability ([11]; first compound 0.04 µM): 0.764 | relative viability ([11]; first compound 0.1265 µM): 0.777 | relative viability ([11]; first compound 0.4 µM): 0.361 | relative viability ([11]; first compound 1.265 µM): 0.425 | relative viability ([11]; first compound 4 µM): 0.436 | relative viability ([12]; first compound 0.04 µM): 0.825 | relative viability ([12]; first compound 0.1265 µM): 0.846 | relative viability ([12]; first compound 0.4 µM): 0.729 | relative viability ([12]; first compound 1.265 µM): 0.791 | relative viability ([12]; first compound 4 µM): 0.758 | relative viability ([13]; first compound 0.04 µM): 0.653 | relative viability ([13]; first compound 0.1265 µM): 0.813 | relative viability ([13]; first compound 0.4 µM): 0.713 | relative viability ([13]; first compound 1.265 µM): 0.594 | relative viability ([13]; first compound 4 µM): 0.456 | relative viability ([14]; first compound 0.04 µM): 0.654 | relative viability ([14]; first compound 0.1265 µM): 0.961 | relative viability ([14]; first compound 0.4 µM): 0.737 | relative viability ([14]; first compound 4 µM): 0.945 | relative viability ([15]; first compound 0.04 µM): 0.52 | relative viability ([15]; first compound 0.1265 µM): 0.544 | relative viability ([15]; first compound 0.4 µM): 0.731 | relative viability ([15]; first compound 1.265 µM): 0.553 | relative viability ([15]; first compound 4 µM): 0.577 | relative viability ([16]; first compound 0.04 µM): 0.864 | relative viability ([16]; first compound 0.1265 µM): 0.809 | relative viability ([16]; first compound 0.4 µM): 0.782 | relative viability ([16]; first compound 1.265 µM): 0.668 | relative viability ([16]; first compound 4 µM): 0.706 | relative viability ([17]; first compound 0.04 µM): 0.666 | relative viability ([17]; first compound 0.1265 µM): 0.602 | relative viability ([17]; first compound 0.4 µM): 0.544 | relative viability ([17]; first compound 1.265 µM): 0.155 | relative viability ([17]; first compound 4 µM): 0.182 | relative viability ([18]; first compound 0.04 µM): 0.522 | relative viability ([18]; first compound 0.1265 µM): 0.813 | relative viability ([18]; first compound 1.265 µM): 0.774 | relative viability ([18]; first compound 4 µM): 0.86 | relative viability ([19]; first compound 0.04 µM): 0.793 | relative viability ([19]; first compound 0.1265 µM): 0.791 | relative viability ([19]; first compound 0.4 µM): 0.771 | relative viability ([19]; first compound 1.265 µM): 0.761 | relative viability ([19]; first compound 4 µM): 0.856 | relative viability ([20]; first compound 0.04 µM): 1.29 | relative viability ([20]; first compound 0.1265 µM): 1.18 | relative viability ([20]; first compound 0.4 µM): 1.19 | relative viability ([20]; first compound 4 µM): 1.1 | relative viability ([21]; first compound 0.04 µM): 0.813 | relative viability ([21]; first compound 0.1265 µM): 0.759 | relative viability ([21]; first compound 0.4 µM): 0.656 | relative viability ([21]; first compound 1.265 µM): 0.261 | relative viability ([21]; first compound 4 µM): 0.155 | relative viability ([22]; first compound 0.04 µM): 0.783 | relative viability ([22]; first compound 0.1265 µM): 0.82 | relative viability ([22]; first compound 0.4 µM): 0.789 | relative viability ([22]; first compound 1.265 µM): 0.773 | relative viability ([22]; first compound 4 µM): 0.547 | relative viability ([23]; first compound 0.04 µM): 0.657 | relative viability ([23]; first compound 0.1265 µM): 0.896 | relative viability ([23]; first compound 0.4 µM): 0.816 | relative viability ([23]; first compound 1.265 µM): 0.755 | relative viability ([23]; first compound 4 µM): 0.851
